Reference: PubChem BioAssay AID248 (DTP/NCI, 2004)
Where “and” joins values, the source holds several entries; their conditions need not be identical. Equal values may be shown once. Toxic doses and inconclusive results are not listed. Cut-off read from the data, not from the text of the source: active = T/C of 150% or more; inactive = T/C below 125%.

Tested on: L1210 leukemia ip in BDF1 mice, survival T/C
Assay: NCI In Vivo Anticancer Drug Screen. Data for tumor model L1210 Leukemia (intraperitoneal) in B6D2F1 (BDF1) mice
Conditions: endpoint: mean survival time, higher = longer survival
In short: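 Each compound was tested against a transplantable tumor grown in mice. The endpoint was survival, with treated animals benchmarked against vehicle controls as a simple ratio.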

[1] = dose: 100.0 mg/kg/injection, schedule: Q04DX003 (ip), vehicle: Klucel (hydroxypropylcellulose) (HPC)
[2] = dose: 200.0 mg/kg/injection, schedule: Q04DX003 (ip), vehicle: Klucel (hydroxypropylcellulose) (HPC)
[3] = dose: 400.0 mg/kg/injection, schedule: Q04DX003 (ip), vehicle: Klucel (hydroxypropylcellulose) (HPC)
[4] = dose: 50.0 mg/kg/injection, schedule: Q01DX009 (ip), vehicle: saline
[5] = dose: 100.0 mg/kg/injection, schedule: Q01DX009 (ip), vehicle: saline
[6] = dose: 100.0 mg/kg/injection, schedule: Q04DX003 (ip), vehicle: saline
[7] = dose: 200.0 mg/kg/injection, schedule: Q01DX009 (ip), vehicle: saline
[8] = dose: 200.0 mg/kg/injection, schedule: Q04DX003 (ip), vehicle: saline
[9] = dose: 400.0 mg/kg/injection, schedule: Q04DX003 (ip), vehicle: saline
[10] = dose: 100.0 mg/kg/injection, schedule: Q01DX009 (ip), vehicle: Klucel (hydroxypropylcellulose) (HPC)
[11] = dose: 200.0 mg/kg/injection, schedule: Q01DX009 (ip), vehicle: Klucel (hydroxypropylcellulose) (HPC)
[12] = dose: 100.0 mg/kg/injection, schedule: Q01DX001 (ip), vehicle: carboxymethylcellulose (CMC)
[13] = dose: 200.0 mg/kg/injection, schedule: Q01DX001 (ip), vehicle: carboxymethylcellulose (CMC)
[14] = dose: 400.0 mg/kg/injection, schedule: Q01DX001 (ip), vehicle: carboxymethylcellulose (CMC)
[15] = dose: 100.0 mg/kg/injection, schedule: Q01DX009 (ip), vehicle: carboxymethylcellulose (CMC)
[16] = dose: 100.0 mg/kg/injection, schedule: Q04DX002 (ip), vehicle: carboxymethylcellulose (CMC)
[17] = dose: 200.0 mg/kg/injection, schedule: Q01DX009 (ip), vehicle: carboxymethylcellulose (CMC)
[18] = dose: 200.0 mg/kg/injection, schedule: Q04DX002 (ip), vehicle: carboxymethylcellulose (CMC)
[19] = dose: 400.0 mg/kg/injection, schedule: Q01DX009 (ip), vehicle: carboxymethylcellulose (CMC)
[20] = dose: 400.0 mg/kg/injection, schedule: Q04DX002 (ip), vehicle: carboxymethylcellulose (CMC)
[21] = dose: 100.0 mg/kg/injection, schedule: Q04DX002 (ip), vehicle: Klucel (hydroxypropylcellulose) (HPC)
[22] = dose: 200.0 mg/kg/injection, schedule: Q04DX002 (ip), vehicle: Klucel (hydroxypropylcellulose) (HPC)
[23] = dose: 400.0 mg/kg/injection, schedule: Q04DX002 (ip), vehicle: Klucel (hydroxypropylcellulose) (HPC)
[24] = dose: 50.0 mg/kg/injection, schedule: Q01DX009 (ip), vehicle: saline with Tween-80
[25] = dose: 100.0 mg/kg/injection, schedule: Q01DX009 (ip), vehicle: saline with Tween-80
[26] = dose: 200.0 mg/kg/injection, schedule: Q01DX009 (ip), vehicle: saline with Tween-80
[27] = dose: 12.5 mg/kg/injection, schedule: Q04DX002 (ip), vehicle: Klucel (hydroxypropylcellulose) (HPC)
[28] = dose: 25.0 mg/kg/injection, schedule: Q04DX002 (ip), vehicle: Klucel (hydroxypropylcellulose) (HPC)
[29] = dose: 100.0 mg/kg/injection, schedule: Q01DX001 (ip), vehicle: Klucel (hydroxypropylcellulose) (HPC)
[30] = dose: 200.0 mg/kg/injection, schedule: Q04DX003 (ip), vehicle: saline with Tween-80
[31] = dose: 400.0 mg/kg/injection, schedule: Q01DX009 (ip), vehicle: saline with Tween-80
[32] = dose: 400.0 mg/kg/injection, schedule: Q04DX003 (ip), vehicle: saline with Tween-80
[33] = dose: 400.0 mg/kg/injection, schedule: Q01DX009 (ip), vehicle: Klucel (hydroxypropylcellulose) (HPC)

Measured: T/C

CC(=O)OC1CCC2(C)C(=CC=C3C2CCC2(C)C3CCC2C(C)/C=C/C(C)C(C)C)C1 (configuration not stated)
inactive: dose: 100.0 mg/kg/injection, schedule: Q04DX002 (sc), vehicle: saline with Tween-80 97 % of control | [1] 93 % of control | dose: 200.0 mg/kg/injection, schedule: Q04DX002 (sc), vehicle: saline with Tween-80 97 % of control | [2] 96 % of control | dose: 400.0 mg/kg/injection, schedule: Q04DX002 (sc), vehicle: saline with Tween-80 97 % of control | [3] 93 % of control

CCOC(=O)/C(Cc1ccc2ccccc2n1)=N/O
inactive: [4] 93 % of control | [5] 98 % of control | [6] 98 % of control | [7] 87 % of control | [8] 96 % of control | [9] 93 % of control

COc1cccc(CC(=O)C(=O)O)c1
inactive: dose: 50.0 mg/kg/injection, schedule: Q01DX009 (ip), vehicle: Klucel (hydroxypropylcellulose) (HPC) 98 % of control | [10] 90 % of control | [1] 97 % of control | [11] 95 % of control | [2] 98 % of control

CN(C)c1c(-c2ccccc2)cc(-c2ccccc2)[nH]c1=O
inactive: [12] 95 % of control | [13] 95 % of control | [14] 88 % of control

CCCCCCC(=O)N(C(C)C)C(C)C
inactive: [12] 100 % of control | [15] 103 % of control and 104 % of control | [16] 98 % of control and 103 % of control | dose: 100.0 mg/kg/injection, schedule: Q04DX003 (ip), vehicle: carboxymethylcellulose (CMC) 104 % of control | [13] 98 % of control | [17] 97 % of control and 100 % of control | [18] 93 % of control and 98 % of control | dose: 200.0 mg/kg/injection, schedule: Q04DX003 (ip), vehicle: carboxymethylcellulose (CMC) 102 % of control | [14] 88 % of control | [19] 93 % of control | [20] 92 % of control

CC[As](=O)(O)CC
inactive: [4] 97 % of control | [5] 120 % of control | [6] 101 % of control | [7] 105 % of control | [8] 107 % of control

Cc1ccc(NC(=O)Nc2ccccc2Cl)c(C)c1
inactive: [12] 93 % of control | [13] 101 % of control | [14] 98 % of control

N#CC(Sc1ccccc1)c1ccccc1 (configuration not stated)
inactive: [21] 119 % of control | [22] 97 % of control | [23] 86 % of control

CC12CCC(O)C(C)(C)C1=C(O)C(=O)C1=C2C(=O)CC2(C)C(=O)CCC12C (configuration not stated)
inactive: [6] 93 % of control | [8] 93 % of control | [9] 98 % of control

CCCn1ncc(=O)[nH]c1=O
inactive: [24] 96 % of control | [25] 112 % of control | [26] 103 % of control

CCCCCCCCCCC(N)C(=O)O (configuration not stated)
inactive: [27] 104 % of control | [28] 91 % of control | dose: 50.0 mg/kg/injection, schedule: Q04DX002 (ip), vehicle: Klucel (hydroxypropylcellulose) (HPC) 88 % of control

O=[N+]([O-])c1ccc(N/N=C/C23CC4CC(CC(C4)C2)C3)c([N+](=O)[O-])c1
inactive: dose: 3.12 mg/kg/injection, schedule: Q04DX002 (ip), vehicle: Klucel (hydroxypropylcellulose) (HPC) 121 % of control | dose: 6.25 mg/kg/injection, schedule: Q04DX002 (ip), vehicle: Klucel (hydroxypropylcellulose) (HPC) 110 % of control | [27] 113 % of control | [28] 94 % of control | [29] 98 % of control

OCC1OC(Sc2ncc3cnccn23)C(O)C(O)C1O (configuration not stated)
inactive: dose: 100.0 mg/kg/injection, schedule: Q01DX005 (ip), vehicle: saline 100 % of control | dose: 200.0 mg/kg/injection, schedule: Q01DX005 (ip), vehicle: saline 100 % of control

ClC1(Cl)Cc2ccccc21
inactive: [25] 97 % of control | dose: 177.0 mg/kg/injection, schedule: Q04DX003 (ip), vehicle: saline with Tween-80 98 % of control | [26] 96 % of control | [30] 101 % of control | dose: 266.0 mg/kg/injection, schedule: Q04DX003 (ip), vehicle: saline with Tween-80 98 % of control | [31] 96 % of control | [32] 98 % of control | dose: 600.0 mg/kg/injection, schedule: Q04DX003 (ip), vehicle: saline with Tween-80 110 % of control

Cc1ccc2[nH]c(=S)n(-c3ccc(C)c(Cl)c3)c(=O)c2c1
inactive: [15] 95 % of control | [16] 99 % of control and 89 % of control | [17] 93 % of control and 89 % of control | [18] 96 % of control and 99 % of control | [19] 92 % of control and 89 % of control | [20] 92 % of control

COc1cc2c(cc1C)OC(C)(CC(=O)O)C2 (configuration not stated)
inactive: [29] 103 % of control | dose: 200.0 mg/kg/injection, schedule: Q01DX001 (ip), vehicle: Klucel (hydroxypropylcellulose) (HPC) 96 % of control | dose: 400.0 mg/kg/injection, schedule: Q01DX001 (ip), vehicle: Klucel (hydroxypropylcellulose) (HPC) 96 % of control

CCCCCCCCCC(=O)Nc1ccc(CC)cc1
inactive: [21] 94 % of control | [22] 101 % of control | [23] 111 % of control

O=C(N/N=C/c1ccccn1)c1ccc(Cl)cc1
inactive: [24] 104 % of control | [25] 86 % of control | [26] 107 % of control

CCCCCCC(C)S(=O)(=O)c1ccc(C)cc1 (configuration not stated)
inactive: dose: 100.0 mg/kg/injection, schedule: Q01DX001 (ip), vehicle: saline 87 % of control and 94 % of control | dose: 200.0 mg/kg/injection, schedule: Q01DX001 (ip), vehicle: saline 90 % of control and 91 % of control | dose: 400.0 mg/kg/injection, schedule: Q01DX001 (ip), vehicle: saline 94 % of control

CCOC(=O)C(C(=O)OCC)=C(C#N)c1c[nH]c2ccccc12
inactive: [10] 103 % of control | [1] 104 % of control | [11] 96 % of control | [2] 95 % of control | [33] 92 % of control | [3] 96 % of control

Cc1ccc(NC(=O)Nc2ccc(C)c(NC(=O)Nc3ccc(C)cc3C)c2)c(C)c1
inactive: dose: 100.0 mg/kg/injection, schedule: Q04DX003 (ip), vehicle: saline with Tween-80 90 % of control | [26] 103 % of control | [30] 95 % of control | [31] 109 % of control | [32] 93 % of control

Cc1coc(NS(=O)(=O)c2ccc(N=Nc3c(N)n(C)c(=O)n(C)c3=O)cc2)c1C
inactive: [12] 98 % of control | [13] 95 % of control | [14] 98 % of control

CCOC(=O)/C=N/Nc1ccc([N+](=O)[O-])cc1[N+](=O)[O-]
inactive: dose: 50.0 mg/kg/injection, schedule: Q01DX001 (ip), vehicle: other 95 % of control | dose: 100.0 mg/kg/injection, schedule: Q01DX001 (ip), vehicle: other 90 % of control | dose: 200.0 mg/kg/injection, schedule: Q01DX001 (ip), vehicle: other 95 % of control | dose: 400.0 mg/kg/injection, schedule: Q01DX001 (ip), vehicle: other 92 % of control

O=C(/C=C(\OB(F)F)c1ccccc1)c1ccccc1
inactive: dose: 50.0 mg/kg/injection, schedule: Q01DX001 (ip), vehicle: carboxymethylcellulose (CMC) 102 % of control | [12] 94 % of control | [13] 100 % of control | [14] 90 % of control

COc1cccc(NC(=O)Nc2ccccc2OC)c1
inactive: [10] 106 % of control | [1] 100 % of control | [11] 108 % of control | [2] 97 % of control | [33] 103 % of control | [3] 100 % of control
